Measurements: US9938232B2, “LED photoinitiators” (SUN CHEMICAL CORPORATION, priority 2014, dated 2018)

What was measured:
[1] = Solubility in water and organic solvents (observation); type: physicochemical
Description: After cooling, the pH of the solution was adjusted to 4 with about 100 ml of a 50 wt % aqueous solution of acetic acid to precipitate a yellow solid. The solid was collected by filtration and dissolved in a saturated aqueous solution (100 ml) of sodium carbonate. Insoluble material was removed by filtration and the pH of the filtrate was adjusted to 5 to 6 with aqueous acetic acid to precipitate a yellow solid. The solid was collected by filtration and re-crystallized from 130 ml ethanol.

UV-spectra measurement = type: physicochemical
Description: Spectra were acquired using a Unicam UV-2 UV/VIS spectro-photometer. All absorption spectra were obtained using 1 cm cuvettes, scanning within the 200-800 nm range. Solutions were prepared in a 100 cm^3 volumetric flask, and, if required, subsequently diluted so that a maximum absorbance of less than 2 was obtained. From the absorption the molar extinction coefficient e was calculated in liter*mol^−1*cm^−1.

[2] = Solubility in multifunctional acrylates; type: physicochemical; details: 10 and 20 weight % in PPTTA, TMPTA and EO-TMPTA, stirred 10 minutes at 45° C.
Description: • Mn: 1050 Da, Mw 1360 Da • IR: v [cm-1]: 3318, 2930, 2861, 1716 (s), 1641, 1590 (vs), 1525, 1450, 1364, 1284, 1228, 1146, 1068, 927, 826, 770 Solubility: • The product as obtained according to Example 10 was added to different multifunctional acrylates to check solubility. Propoxylated pentaerythritol tetraacrylate (SR 494 LM, Sartomer company) (PPTTA), trimethylol propane triacrylate (SR 351M, Sartomer company) (TMPTA) and ethoxylated trimethylol propane triacrylate (Ebecryl LEO 10501, Allnex company) (EO-TMPTA) were used. The compound of example 10 was added in amounts of 10 and 20 weight % to each of the acrylates and stirred for 10 minutes at 45° C. In all cases (even at 20 weight %), clear, intense yellow, transparent mixtures were obtained.

## CN(C)c1ccc(C(=O)c2ccc(N(C)C)cc2C(=O)O)cc1 [Example 2, 5-(dimethylamino)-2-[4-(dimethylamino)benzoyl]-benzoic acid]
[1]; DMSO
  Solubility in DMSO: soluble in DMSO
other
  melting point: 269 to 272 °C

## CN(C)c1ccc(C(=O)c2ccc(N(C)C)cc2C(=O)[O-])cc1.[K+] [Example 6, 5-(dimethylamino)-2-[4-(dimethylamino)benzoyl]-benzoic acid potassium salt]
[1]; methylene chloride
  Solubility in methylene chloride: limited solubility in methylene chloride
[1]; water
  Solubility in water: good solubility in water
UV-spectra measurement; in H2O
  UV-spectroscopy: λmax (H2O): 365 nm
UV-spectra measurement; in water
  Molar extinction coefficient: 36192 L/mol/cm

## CCCCOCC(COC(=O)c1cc(N(C)C)ccc1C(=O)c1ccc(N(C)C)cc1)OC(=O)NCCCCCCNC(=O)OC(COCCCC)COC(=O)c1cc(N(C)C)ccc1C(=O)c1ccc(N(C)C)cc1 (stereo not shown) [Example 10]
[2]
  Solubility in multifunctional acrylates: very good solubility
